Assay [1] deals with T1, Inositol polyphosphate-5-phosphatase A (Homo sapiens, UniProt Q14642).
T1 sequence (Q14642 whole entry): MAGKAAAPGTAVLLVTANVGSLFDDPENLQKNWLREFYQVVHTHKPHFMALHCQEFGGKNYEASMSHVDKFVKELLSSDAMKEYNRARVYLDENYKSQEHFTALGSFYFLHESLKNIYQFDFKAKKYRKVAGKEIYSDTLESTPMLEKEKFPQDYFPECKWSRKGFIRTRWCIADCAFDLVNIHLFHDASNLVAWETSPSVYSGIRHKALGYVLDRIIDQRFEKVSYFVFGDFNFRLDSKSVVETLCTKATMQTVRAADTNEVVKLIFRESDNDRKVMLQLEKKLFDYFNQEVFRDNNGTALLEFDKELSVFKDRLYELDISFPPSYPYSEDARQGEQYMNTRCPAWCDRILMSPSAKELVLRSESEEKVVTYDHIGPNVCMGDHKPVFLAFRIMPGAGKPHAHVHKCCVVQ
Kind of assay: Tested for inhibition of 5-phosphatase isolated from human erythrocyte membrane (S substrate).

Assay [2] is described as follows: Tested for [Ca2+] release in 45 [Ca2+] -preloaded SH-SY5Y cells using saponin. Type of assay: functional, cell-based. The settings on record: Homo sapiens.
Assay [3] in a line: Inhibition of Inositol 1,4,5-trisphosphate 3-kinase from rat brain homogenate (r metabolically resistant).
Assay [4] in a line: Tested for the ability to displace [3H]1,4,5-IP3 from the 1,4,5-IP3 specific binding site of membranes from the bovine adrenal cortices.
For assay [5], the target named is T1, Inositol polyphosphate-5-phosphatase A. Kind of assay: Tested for inhibition of 5-phosphatase isolated from human erythrocyte membrane (R metabolically resistant).
Assay [6] in a line: (§1) Inhibition of Inositol 1,4,5-trisphosphate 3-kinase from rat brain homogenate (R metabolically resistant). The class given is tissue-based.
Assay [7] is described as follows: Inhibition of Inositol 1,4,5-trisphosphate 3-kinase from rat brain homogenate (r-metabolically resistant).
In assay [8] the target is T1, Inositol polyphosphate-5-phosphatase A. The assay is described as follows: Tested for inhibition of 5-phosphatase isolated from human erythrocyte membrane.
Assay [9] is described as follows: as §1.
The nature of assay [10]: Inhibition of Inositol 1,4,5-trisphosphate 3-kinase from rat brain homogenate (S substrate).

Structures are written as SMILES. Some results are limits rather than exact numbers.

A word on the Ki: it is a dissociation constant, usually derived from enzyme kinetics or from competition with a known ligand. High values mean weaker binding, low ones tighter binding. A word on the EC50: it is the concentration giving half of the maximal effect. Read a high EC50 as a need for much substance.

Consider `O=P(O)(O)OC1CCC(OP(=O)(O)O)[C@H](OP(=O)(O)O)[C@@H]1O` (stereo partly specified), for which the values for the Ki in assay [1], in [3] and in [4] were 16.5 µM, 19 µM and 0.0396 µM, respectively. This molecule returned an EC50 in assay [2] of 0.186 µM.

Molecule `O=P(O)(O)Cc1ccc(CP(=O)(O)O)c(CP(=O)(O)O)c1` registered an EC50 in assay [2] of over 100 µM. The Ki in assay [4] was over 100 µM; in assay [5], 148 µM; in [6], over 200 µM.

For `O=P(O)(O)OC1[C@H](O)CC(OP(=O)(O)O)[C@H](OP(=O)(O)O)[C@@H]1O` (stereo partly specified), the Ki in assay [1] amounted to 11.5 µM; in assay [3] it was 25 µM; in [4], 0.0234 µM. The same molecule returned an EC50 in [2] of 0.156 µM.

Consider `O=P(O)(O)OC1CCC(OP(=O)(O)O)[C@H](OP(=O)(O)O)C1` (stereo partly specified), for which the Ki came to 81.4 µM in assay [1], 36 µM in [7] and 3.95 µM in [4]. Besides, in assay [2], the EC50 was over 10 µM.

In [2], `O=P(O)(O)OCC1CCC(COP(=O)(O)O)[C@H](COP(=O)(O)O)C1` (stereo partly specified) gave an EC50 of over 100 µM. Moreover, the values for the Ki in assay [4], in [5] and in assay [6] were over 100 µM, 144 µM and over 600 µM, respectively.

`O=P(O)(O)CC1CCC(CP(=O)(O)O)[C@H](CP(=O)(O)O)C1` (stereo partly specified): the EC50 in assay [2] is over 100 µM. The Ki in [4] is over 100 µM; in [5], 535 µM; in assay [6], over 600 µM.

For the molecule `O=S(=O)(O)CC1CC[C@@H](CS(=O)(=O)O)C[C@H]1CS(=O)(=O)O` (stereo partly specified), the Ki is 3.9 µM in assay [8], over 100 µM in assay [4] and over 600 µM in assay [6]. In assay [2], this molecule gave an EC50 of over 100 µM.

`O=S(=O)(O)CC1CC[C@H](CS(=O)(=O)O)C[C@H]1CS(=O)(=O)O` (stereo partly specified) came in with an EC50 in assay [2] of over 100 µM. Also, the Ki was over 100 µM in assay [4], over 600 µM in [9] and over 1000 µM in assay [5].

For `O=P(O)(O)O[C@@H]1[C@H](O)[C@H](O)[C@@H](OP(=O)(O)O)[C@H](OP(=O)(O)O)[C@H]1O` [INS(1,4,5)P3], the Ki in assay [1] stood at 15 µM; in [4], 0.0022 µM; in assay [10], 0.85 µM. Moreover, the response in assay [2] was half-maximal at 0.0521 µM (EC50).

(Values after ChEMBL document CHEMBL1126847, “Deoxygenated inositol 1,4,5-trisphosphate analogues and their interaction with metabolic enzymes. (1R,2R,4R)-cyclohexane-1,2,4-tris(methylenesulfonate): a potent selective 5-phosphatase inhibitor” (J Med Chem, 1993).)
